Laboratory results taken from ChEMBL document CHEMBL1152333 (J Nat Prod, 2009).
The source made the active and inactive calls. The rule behind the calls is not given here.

Legend:
[1] = Inhibition of Kv channel in depolarized mouse N2A cells assessed as inhibition of +30 mV-triggered steady state potassium current flow
N2a [2] = test: Inactivation of open state of Kv channel in depolarized mouse N2A cells assessed as change in +30 mV-stimulated peak current at 30 uM treated 4 mins before voltage stimulation relative to control; assay type: cell-based
N2a [3] = test: Steady state inactivation of Kv potassium channel in 10 second long prepulse-activated mouse N2A cells followed by further +70 mV pulse stimulation assessed as reduction in half maximal activation potential at 30 uM (RVb=20.9 +/- 2.1 mV); assay type: cell-based
N2a [4] = test: Inactivation of Kv channel in +30 mV-stimulated mouse N2A cells assessed as decay time constant of inactivated K+ current at 30 uM applied extracellularly measured after compound washout (Rvb=1970 +/- 101 ms); assay type: cell-based
N2a [5] = test: Inhibition of Kv potassium channel-induced current in mouse N2A cells assessed as left shift of activation curve; assay type: cell-based
N2a [6] = test: Inhibition of Kv potassium channel in +10 to +70 mV-stimulated mouse N2A cells at 30 uM; assay type: cell-based
Mus musculus [7] = species on record: Mus musculus; test: Inhibition of Kv potassium channel in mouse N2A assessed as blockade of channel pore at 30 uM in presence of 70 mM intracellular potassium ion; assay type: cell-based
N2a [8] = test: Inactivation of Kv channel in +30 mV-activated mouse N2A cells followed by further +30 mV pulse stimulation assessed as peak K+ current recovery at 30 uM; assay type: cell-based
N2a [9] = test: Inactivation of open state of Kv channels in depolarized mouse N2A cells assessed as reduction of +30 mV-stimulated peak current magnitude at 30 uM treated 4 mins before voltage stimulation followed by restimulation with +30 mV pulse every 20 seconds measured after 6 mins relative to control; assay type: cell-based; design: scale not given: the % may be the effect or the level left
N2a [10] = test: Inactivation of Kv channel in +30 mV-stimulated mouse N2A cells assessed as […] at 30 uM applied extracellularly measured after compound washout (Rvb=1970 +/- 101 ms); assay type: cell-based
[11] = biological target: Potassium voltage-gated channel subfamily A member 2 (Homo sapiens) (UniProt P16389); test: Inhibition of Kv1.2 channel expressed in -70 mV-activated HEK293 cells followed by further 10 mV pulse stimulation assessed as slope factor (RVb= 16.3 +/- 1.8 no_unit); assay type: cell-based
Sequence of Potassium voltage-gated channel subfamily A member 2 (Homo sapiens) (P16389 whole entry): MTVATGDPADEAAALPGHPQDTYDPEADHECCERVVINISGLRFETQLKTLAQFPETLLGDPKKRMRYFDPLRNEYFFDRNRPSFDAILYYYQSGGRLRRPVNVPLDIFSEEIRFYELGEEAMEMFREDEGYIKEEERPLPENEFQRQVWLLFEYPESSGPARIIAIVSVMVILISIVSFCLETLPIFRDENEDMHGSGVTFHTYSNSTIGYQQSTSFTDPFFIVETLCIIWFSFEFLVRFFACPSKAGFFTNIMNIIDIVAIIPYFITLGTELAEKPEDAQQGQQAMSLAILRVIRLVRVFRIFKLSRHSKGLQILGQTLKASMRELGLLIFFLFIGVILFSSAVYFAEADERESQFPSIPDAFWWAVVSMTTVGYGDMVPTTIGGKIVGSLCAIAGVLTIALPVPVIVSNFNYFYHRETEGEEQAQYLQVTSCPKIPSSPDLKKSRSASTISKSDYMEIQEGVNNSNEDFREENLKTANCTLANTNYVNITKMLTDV

N2a [12] = test: Inactivation of open state of Kv channel in +30 mV-stimulated mouse N2A cells assessed as peak K+ current recovery at 30 uM treated 4 mins before voltage stimulation followed by restimulation with +30 mV pulse every 20 seconds measured after compound washout; assay type: cell-based
Mus musculus [13] = species on record: Mus musculus; test: Inhibition of Kv potassium channel in mouse N2A assessed as blockade of channel pore at 10 uM in presence of 140 mM intracellular potassium ion; assay type: cell-based
N2a [14] = test: Steady state inactivation of Kv potassium channel in 10 sec long prepulse-activated mouse N2A cells followed by further +70 mV pulse stimulation assessed as change in slope factor potential at 30 uM (Rvb=6.4 +/- 1.1 no_unit); assay type: cell-based
N2a [15] = test: Inactivation of Kv channel in +30 mV-stimulated mouse N2A cells assessed as decay time constant of inactivated K+ current at 30 uM via bath application measured after 3 mins (Rvb=1567 +/- 104 ms); assay type: cell-based
N2a [16] = test: Steady state inactivation of Kv potassium channel in -70 mV-activated mouse N2A cells followed by further 10 mV pulse stimulation assessed as activation slope factor at 30 uM applied intracellularly; assay type: cell-based
N2a [17] = test: Steady state inactivation of Kv potassium channel in -70 mV-activated mouse N2A cells followed by further 10 mV pulse stimulation assessed as reduction in half maximal activation potential at 30 uM (RVb= 10.8 +/- 2.4 mV); assay type: cell-based
N2a [18] = test: Inhibition of Kv potassium channel in +10 to +70 mV-stimulated mouse N2A cells at 10 uM; assay type: cell-based
N2a [19] = test: Steady state inactivation of Kv potassium channel in -70 mV-activated mouse N2A cells followed by further 10 mV pulse stimulation assessed as reduction in half maximal activation potential at 30 uM applied intracellularly (RVb= 10.8 +/- 2.4 mV); assay type: cell-based
N2a [20] = test: Inactivation of Kv channel in +30 mV-stimulated mouse N2A cells assessed as decay time constant of inactivated K+ current at 30 uM applied extracellularly (Rvb=1970 +/- 101 ms); assay type: cell-based
N2a [21] = test: Steady state inactivation of Kv potassium channel in -70 mV-activated mouse N2A cells followed by further 10 mV pulse stimulation assessed as change in slope factor potential at 30 uM (RVb= 16.1 +/- 1.1 no_unit); assay type: cell-based

Q: Which IC50 [1] does the source give for `CC[C@H]1CN2CC[C@]3(C(=O)Nc4ccccc43)[C@@H]2C[C@@H]1/C(=C\OC)C(=O)OC` [RHYNCHOPHYLLINE] here?
A: Its IC50 is 7.9 µM.

Q: What about the Activity (N2a [2]) of the same compound?
A: Its Activity is 115%.

Q: What about the Activity (N2a [3]) of the same compound?
A: Its Activity is -34.6 mV.

Q: And the Activity (N2a [4])?
A: The Activity was 1900 ms.

Q: And the Activity (N2a [5])?
A: Its Activity is “Active”.

Q: And the Activity (N2a [6])?
A: Its Activity is “Active”.

Q: And the Activity (Mus musculus [7])?
A: The Activity was “inactive”.

Q: And the Activity (N2a [8])?
A: The Activity was “inactive”.

Q: What about the Activity (N2a [9]) of the same compound?
A: Its Activity is 72.5%.

Q: And the Activity (N2a [10])?
A: The Activity was 93.3 ms.

Q: What about the Activity [11] of the same compound?
A: Its Activity is 19.4.

Q: And the Activity (N2a [12])?
A: Its Activity is 98%.

Q: And the Activity (Mus musculus [13])?
A: Its Activity is “inactive”.

Q: What about the Activity (N2a [14]) of the same compound?
A: Its Activity is 3.7.

Q: What about the Activity (N2a [15]) of the same compound?
A: Its Activity is 35 ms.

Q: And the Activity (N2a [16])?
A: The Activity was 11.8.

Q: And the Activity (N2a [17])?
A: Its Activity is -6.5 mV.

Q: What about the Activity (N2a [18]) of the same compound?
A: Its Activity is “Active”.

Q: And the Activity (N2a [19])?
A: The Activity was 7.7 mV.

Q: What about the Activity (N2a [20]) of the same compound?
A: The Activity was 60.8 ms.

Q: And the Activity (N2a [21])?
A: Its Activity is 23.2.
